# Measurements taken from the NIST ThermoML archive (doi:10.1021/je800849s).
# ± gives the expanded uncertainty stated by the source.
# Conditions: Liquid, Closed cell (Static) method
smiles,measurement,setting,value
CCC [propane],vapor or sublimation pressure,263.3 K,344 ± 1 kPa
same,vapor or sublimation pressure,283.25 K,639 ± 2 kPa
same,vapor or sublimation pressure,291.22 K,795 ± 3 kPa
same,vapor or sublimation pressure,296.23 K,906 ± 3 kPa
same,vapor or sublimation pressure,308.21 K,1221 ± 4 kPa
same,vapor or sublimation pressure,323.19 K,1715 ± 5 kPa
